Assay: gradient 5% acetonitrile 3 min, to 50% in 2 min, to 85% in 15 min, held 3 min, 100 µL/min
Conditions: column: Zorbax Extend-C18 2.1 x 50 mm; eluents: water / acetonitrile, 0.1% formic acid
Method in brief: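 Mixtures of ~100 pure standards were chromatographed on a Zorbax Extend-C18 column (2.1 × 50 mm, 1.8 μm) at 100 μL/min using water and acetonitrile, each with 0.1% formic acid. Detection used a quadrupole time-of-flight mass spectrometer in positive and negative ionization mode, and data collection spanned 3 months. Retention time was obtained from adduct peaks picked computationally and each checked manually.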

| Compound | RP-LC retention time [s] |
| --- | --- |
| CCC(C)NC(=O)Cn1nc(-c2nc(-c3cccc(C)c3)no2)c2ccccc21 (stereo not drawn) | 1170 |
| Cc1ccn2cc(-c3ccc(NC(=O)Nc4cccc(Cl)c4)cc3)nc2n1 | 692 |
| O=C(NCc1ccncc1)c1sc2ncccc2c1-n1cccc1 | 592 |
| Cc1ccc(CC(=O)N2CCC3(CC2)N=C(c2ccc(C)cc2)NO3)cc1 | 874 |
| CCc1noc(-c2ccnc(-n3ncc(C(=O)NC4CCCCC4)c3C)c2)n1 | 1020 |
| CCc1nc(-c2ccc(-c3noc(CNS(=O)(=O)c4ccc(Cl)cc4)n3)cc2)cs1 | 1110 |
| COc1cccc(NC(=O)N2CCC(n3c(C(F)(F)F)nc4cccnc43)CC2)c1 | 861 |
| COc1cccc(CNC(=O)CN2C(=O)NC3(CCC(C(C)(C)C)CC3)C2=O)c1OC (stereo not drawn) | 943 |
| Cc1ccc(CNC(=O)Nc2ccc3nncn3c2)cc1 | 680 |
| CCOC(=O)c1sc(NC(=O)C(C)(C)C)nc1-c1ccccc1 | 592 |
| CCOC(=O)Cc1ccc(NC(=O)NCc2c(C)nn(C)c2C)cc1 | 680 |
| O=c1c2ccc(Cl)cc2oc2cc(O)cc(O)c12 | 979 |
| CC(C)NC(=O)c1cc(C(C)C)[nH]n1 | 660 |
| CC1CCN(S(=O)(=O)c2ccc(-c3nnc(C(=O)NCCCOC(C)C)o3)cc2)CC1 | 1030 |
| CN(CC1CCOCC1)C(=O)Nc1cccc(F)c1 | 720 |
| Cc1cc(NC(=O)C(=O)NCCc2ccc(S(N)(=O)=O)cc2)no1 | 613 |
| O=C1C[C@@H]2OCC=C3C[N+]4([O-])CC[C@]56c7ccccc7N1[C@H]5[C@H]2[C@H]3C[C@@H]64 (stereo partly drawn) | 639 |
| CCc1cccc(NC(=O)Cn2nc3cc(C)nc(Nc4ccc(F)c(C)c4)n3c2=O)c1 | 1190 |
| CCNc1cc(C)nc(N2CCN(C(=O)C(C)(C)C)CC2)n1 | 632 |
| CCCCn1cc(S(=O)(=O)Nc2ccccc2)c2cccnc21 | 937 |

| Compound | RP-LC retention time [s] |
| --- | --- |
| Fc1ccc(-c2noc(-c3nnn4c3COC(c3ccc(Cl)cc3)C4)n2)cc1 (stereo not drawn) | 1250 |
| O=C(O)c1cnc(N2CCCCC2)nc1-c1ccncc1 | 636 |
| O=C(CCCc1nc2cccnc2n1Cc1ccc(F)cc1)N1CCN(c2ccccn2)CC1 | 606 |
| O=C(CCc1conc1-c1ccc(F)cc1)NCc1ccc(F)cc1 | 886 |
| Fc1ccccc1Cn1cccc1-c1nc(-c2ccc3c(c2)OCO3)no1 | 1230 |
| COC(=O)c1sccc1NC(=O)N1CCCn2nc(-c3cccs3)cc2C1 | 984 |
| Cc1ccc(NC(=O)c2cccc([N+](=O)[O-])c2O)c([N+](=O)[O-])c1 | 982 |
| Cc1ccc(C(=O)NCc2[nH]nc3ccccc23)cc1C | 788 |
| Cn1cc(-c2ccncc2)cc1C(=O)NCc1cccc(F)c1 | 630 |
| CCCS(=O)(=O)c1nc2ccc(NS(=O)(=O)c3ccc4c(c3)CCCC4)cc2s1 | 1060 |
| Cc1ccc(CNC(=O)C2CCN(S(=O)(=O)c3c(C)[nH]c(C)c3C(=O)N3CCCC3)CC2)cc1 | 720 |
| CCN1C(=O)C(CC(=O)NCC(C)C)Sc2ncccc21 (stereo not drawn) | 689 |
| Cc1cccc(-n2c(=O)c3c(cc(C)n3C)n(CC(=O)Nc3ccc(C)c(Cl)c3)c2=O)c1 | 960 |
| CCN(CC)C(=O)N[C@H]1C[C@@H]2c3cccc4[nH]cc(c34)C[C@H]2N(C)C1 | 679 |
| CS(=O)(=O)N1CCCN(C(=O)Nc2ccccc2)CC1 | 649 |
| COc1cc([C@@H]2c3cc4c(cc3[C@H](O)[C@@H](CO)[C@@H]2C(=O)Nc2cccc(F)c2)OCO4)cc(OC)c1OC | 761 |
| COc1cc(N2CC(CNS(C)(=O)=O)OC2=O)cc(OC)c1OC (stereo not drawn) | 593 |
| Cc1ccc(-n2ncc3c(=O)n(Cc4nc(-c5ccc(F)c(Cl)c5)no4)cnc32)cc1 | 1190 |
| CCCC(=O)Nc1cc2c(cc1S(=O)(=O)c1ccc(C)cc1)n(C)c(=O)n2C | 824 |
| O=C(c1cccs1)N1CCCC(c2nn[nH]n2)C1 (stereo not drawn) | 627 |

| Compound | RP-LC retention time [s] |
| --- | --- |
| COc1ccc(-c2nnc(Cc3nc(-c4cccc(C)c4)no3)o2)cc1OC | 983 |
| Nc1ccc(-c2ccc3ccccc3n2)cc1 | 619 |
| Cc1ccc(CCNC(=O)Cn2nc(-n3cccc3)c3c(C)cc(C)nc32)cc1 | 1070 |
| CC(C)N1CCC(CC(=O)N2CCc3c(c(-c4nc(C5CC5)no4)nn3C)C2)CC1 | 612 |
| Cc1cc(C)c(S(=O)(=O)N(Cc2ccsc2)Cc2ccccn2)c(C)c1 | 1030 |
| COc1ccc2nc(-c3ccc(NS(=O)(=O)c4ccccc4C(F)(F)F)cc3)cn2n1 | 792 |
| Cc1nnc2ccc(NC(=O)Nc3cccc(F)c3)cn12 | 677 |
| Cc1nc(C)c(C(=O)N2CC(Oc3cccc(-c4nc(-c5ccccc5)no4)c3)C2)s1 | 1110 |
| CC1CCN(C(=O)CN2C(=O)C3CCCCN3c3ccc(S(=O)(=O)N(C)C)cc32)CC1 (stereo not drawn) | 910 |
| CCC(C)NC(=O)c1c(C)sc2ccn(C)c(=O)c12 (stereo not drawn) | 654 |
| Cc1cc(-c2nnc(-c3ccco3)o2)c(C)n1CC(=O)Nc1ccc(F)cc1 | 858 |
| CCCCN(C)C(=O)C1CCCN(c2nnc(C)c3c(C)n(-c4ccc(Cl)cc4)nc23)C1 (stereo not drawn) | 782 |
| COc1ccc(Nc2c(-c3ccc(C(=O)O)cc3)nc3cnccn23)cc1OC | 663 |
| COc1ccc(S(=O)(=O)N2CCN(c3cc(C)nc(NC4CCCCC4)n3)CC2)cc1 | 770 |
| O=C(CCCCCN1C(=O)c2cccc3cccc(c23)C1=O)NO | 694 |
| O=c1n(Cc2cc(F)cc(F)c2)nc2ccc(S(=O)(=O)N3CCCCC3)cn12 | 960 |
| CC(C(=O)N1CCCN(c2nc3cccnc3o2)CC1)c1ccccc1 (stereo not drawn) | 718 |
| CCn1nc(C)c(CCNC(=O)c2cc3c(=O)n(Cc4cccnc4)ccc3nc2C)c1C | 563 |

Results, then the molecule that gave them:

| RP-LC retention time [s] | Compound |
| --- | --- |
| 795 | CCCn1cc(CCNC(=O)c2cc(F)ccc2Cl)c2cccnc21 |
| 863 | CCSc1ccccc1C(=O)NCC1CCN(C(=O)Oc2ccccc2)CC1 |
| 838 | Cc1cccc(CN2C(=O)CN(S(C)(=O)=O)CC2(C)C(=O)NCc2ccccc2)c1 (stereo not drawn) |
| 660 | O=C(NCc1ccccc1)NC1CCN(C(=O)N2C[C@H]3C[C@H](C2)[C@H]2CCCC(=O)N2C3)CC1 |
| 772 | Cc1ccccc1NC(=O)N1CCC2(C1)C(=O)N(C)c1ccccc12 (stereo not drawn) |
| 983 | Cc1nc(-c2csc(S(=O)(=O)N3CCCC(C(=O)NCc4ccccc4C)C3)c2)no1 (stereo not drawn) |
| 1120 | CCOC(=O)C1CCCN(S(=O)(=O)c2ccc(Cl)c(-c3nnc(-c4ccccc4)o3)c2)C1 (stereo not drawn) |
| 762 | CCc1cccc(NS(=O)(=O)c2cc3n(c2)CCN(CC)C3=O)c1 |
| 808 | COc1ccccc1CN1CCc2nc(N3CCN(c4ccccc4F)CC3)ncc2C1 |
| 606 | CCCn1cnc2cc(CNC(=O)c3ccc(OC)c(OC)c3)ccc21 |
| 677 | CCc1cc(=O)n(CC(=O)Nc2cccc(C(C)=O)c2)c(N2CCOCC2)n1 |
| 615 | CCOc1cc2c(cc1OCC)C1C(C(=O)NCCN3CCOCC3)c3ccccc3C(=O)N1CC2 (stereo not drawn) |
| 942 | CCOC(=O)c1nc(Nc2ccccc2OCC)c2ccccc2n1 |
| 666 | COCCCn1c(C)cc(C(=O)NCC2Cn3cccc3C(=O)N2C)c1C (stereo not drawn) |
| 689 | Cc1cc2[nH]c(C(=O)NCc3ccc(F)cc3)c(CN3CCOCC3)c2s1 |
| 707 | CCN1C(=O)C2(CCN(C(C)=O)CC2)c2ccccc21 |
| 968 | O=C(Nc1ccc2c(c1)CCCN2C(=O)C1CC1)c1nc2ccccc2s1 |
| 697 | CCN1CCN(c2nc(F)c(F)c(S(=O)(=O)CCNc3cccc4ccccc34)c2F)CC1 |
| 893 | Cc1ccc(NC(=O)C2CCCN(C(=O)C3Sc4ccccc4NC3=O)C2)cc1Cl (stereo not drawn) |
| 653 | COc1ccc(C(O)CN2CCN(c3cccc(C)c3)CC2)cc1OC (stereo not drawn) |
| 675 | COc1cccc(CNC(=O)C2CCCN(c3cnc4nccnc4c3)C2)c1OC (stereo not drawn) |
| 784 | O=C(NCc1ccc(F)cc1F)C1CCN(C(=O)c2ncn3c2COC(c2ccccc2)C3)CC1 (stereo not drawn) |
| 587 | CN1CCN(C(CNC(=O)Cc2ccc(Cl)cc2)c2ccc3c(c2)OCO3)CC1 (stereo not drawn) |
| 871 | CC(C(=O)N1CCCc2ccccc21)n1nc(-c2ccc3c(c2)OCCO3)ccc1=O (stereo not drawn) |
| 588 | COc1ccc(Nc2c(C(=O)N3CCCCC3)cnc3nc(C)ccc23)cc1OC |
| 761 | COc1ccc(C)cc1NC(=O)N1CCN(Cc2nc3cc(C)ccc3o2)CC1 |
| 733 | CSc1ccc(CNC(=O)Cn2cnc3nc4c(cc3c2=O)CCCC4)cc1 |
| 966 | CCn1ccc(C(=O)N2CCc3c(-c4ccc(OC)cc4)cccc3[C@H]2C)n1 |
| 644 | CCCn1nc2n(c1=O)CCN(Cc1cn[nH]c1-c1ccc(C)c(C)c1)C2 |
| 732 | Cc1ccccc1NC(=O)N1CCC(CC(=O)N2CCCCC2)CC1 |
